The values below are quoted from earlier work in paper PMC10353187, “Discovery of a new potent oxindole multi-kinase inhibitor among a series of designed 3-alkenyl-oxindoles with ancillary carbonic anhydrase inhibitory activity as antiproliferative agents” (BMC Chemistry, 2023).

The Ki is the equilibrium dissociation constant of an inhibitor or competing ligand from its target. As a reminder, the IC50 is the concentration at which inhibition is half-maximal.

One data set deals with hCA II (Homo sapiens, UniProt P00918). Also noted: made in house; method as in PMID 15499993, PMID 12678681, PMID 31313595, PMID 26745009. The conditions noted are these: reported CAIs, Fig. 1; cited from earlier work.
For data set [1] the following is noted: Fig. 1, cited from earlier work.

Take `COc1ccc(C2=NN(c3nc4ccccc4s3)C(c3cc(OC)c(OC)c(OC)c3)C2)cc1` (stereo not drawn) [VIII]: the Ki at hCA II is 22.7 µM. Also, in data set [1], the “Tumor selectivity (TS)” value was 29.3. Further, the concentration for half-maximal inhibition (IC50) in data set [1] (read-out: Cytotoxicity average IC50) was 18.7 µM.
